# Data as given in patent US7531555B2, “Compositions and methods for selective inhibition of nicotine acetylcholine receptors” (University of Florida Research Foundation, Inc., priority 2003, dated 2009).
# Where two headings read alike, the source gives them in different places.
# How the values were obtained:
# mice = assay: Locomotor activity, nicotine-induced hypomotility; assay type: in vivo; conditions: for Locomotor Activity # Interrupts (Mean ± SEM): s.c.
# Method: (§1) Animals. Male ICR mice (20-25 g) obtained from Harlan Laboratories (Indianapolis, Ind.) were used throughout the study. Animals were housed in groups of six and had free access to food and water. Adult, male Long-Evans rats (350-460 g), obtained from Harlan (Dublin, Va.), were individually housed in a temperature-controlled (20-22° C.) environment with a 12-hour light-dark cycle (lights on at 7 a.m.). Rats were maintained within the indicated weight range by restricted post-session feeding and had ad libitum water in their home cages. Rats were drug-naive at the beginning of the study. Animals were housed in an AALAC approved facility and the study was approved by the Institutional Animal Care and Use Committee of Virginia Commonwealth University.
# Locomotor activity. Mice were placed into individual Omnitech photocell activity cages (28×16.5 cm) immediately after s.c. administration of either 0.9% saline or nicotine (6.2 μmol/kg or 1 mg/kg) and were allowed to acclimate for 10 minutes. Interruptions of the photocell beams (two banks of eight cells each) were then recorded for the next 10 minutes. Data were expressed as percentage of depression where % depression=[1−(counts from nicotine-treated animals/counts from vehicle-treated animals)]×100. Mice were pretreated s.c. with either saline or TMPH 10 minutes before nicotine.
# Eight to twelve mice were tested in each treatment group and each animal was tested only once.
# (§2) Statistical analysis. Statistical analysis of all analgesic and in vivo studies was performed using either t-test or analysis of variance (ANOVA) with Tukey's test post hoc test when appropriate. All differences were considered significant at p<0.05. AD50 values with 95% CL for behavioral data were calculated by unweighted least-squares linear regression as described by Tallarida and Murray (Tallarida and Murray Manual of Pharmacological Calculations with Computer Programs. 1987, Springer-Verlag, New York).
# Human α3β2α5 = target: T1, Human α3β2α5 (Homo sapiens, UniProt P17787+P30532+P32297); assay: Voltage clamp of Xenopus oocytes expressing human α3β2α5 nAChR; assay type: cell-based
# T1 construct: expressed in transfected cells; host or cells: Xenopus laevis oocytes injected with subunit cRNAs
# T1 sequence (P32297 32-505): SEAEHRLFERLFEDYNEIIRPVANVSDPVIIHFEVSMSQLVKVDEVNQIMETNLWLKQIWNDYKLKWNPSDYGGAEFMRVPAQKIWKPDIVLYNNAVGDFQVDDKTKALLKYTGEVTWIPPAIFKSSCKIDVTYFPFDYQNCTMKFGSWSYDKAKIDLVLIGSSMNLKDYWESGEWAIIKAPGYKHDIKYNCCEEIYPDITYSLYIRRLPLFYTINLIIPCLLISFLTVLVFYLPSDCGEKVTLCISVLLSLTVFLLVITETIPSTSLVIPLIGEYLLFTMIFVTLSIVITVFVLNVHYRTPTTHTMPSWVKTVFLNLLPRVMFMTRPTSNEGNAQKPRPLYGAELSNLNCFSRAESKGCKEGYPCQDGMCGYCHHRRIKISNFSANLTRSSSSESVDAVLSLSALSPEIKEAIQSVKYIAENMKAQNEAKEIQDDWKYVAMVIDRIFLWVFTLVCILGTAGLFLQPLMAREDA
# T1 sequence (P17787 26-502): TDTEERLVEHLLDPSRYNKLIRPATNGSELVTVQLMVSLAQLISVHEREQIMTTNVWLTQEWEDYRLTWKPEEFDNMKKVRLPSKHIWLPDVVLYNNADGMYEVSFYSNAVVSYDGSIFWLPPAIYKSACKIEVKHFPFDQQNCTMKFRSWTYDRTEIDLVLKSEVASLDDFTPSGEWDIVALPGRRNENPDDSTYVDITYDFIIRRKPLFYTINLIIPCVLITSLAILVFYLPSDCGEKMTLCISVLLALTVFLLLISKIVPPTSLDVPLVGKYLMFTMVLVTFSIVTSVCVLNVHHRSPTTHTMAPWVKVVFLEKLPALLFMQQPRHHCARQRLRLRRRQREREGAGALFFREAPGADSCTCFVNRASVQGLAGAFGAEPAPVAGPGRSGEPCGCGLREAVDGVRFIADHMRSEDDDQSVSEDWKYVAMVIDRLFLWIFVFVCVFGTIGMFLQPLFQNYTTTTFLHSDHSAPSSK
# T1 sequence (P30532 23-468): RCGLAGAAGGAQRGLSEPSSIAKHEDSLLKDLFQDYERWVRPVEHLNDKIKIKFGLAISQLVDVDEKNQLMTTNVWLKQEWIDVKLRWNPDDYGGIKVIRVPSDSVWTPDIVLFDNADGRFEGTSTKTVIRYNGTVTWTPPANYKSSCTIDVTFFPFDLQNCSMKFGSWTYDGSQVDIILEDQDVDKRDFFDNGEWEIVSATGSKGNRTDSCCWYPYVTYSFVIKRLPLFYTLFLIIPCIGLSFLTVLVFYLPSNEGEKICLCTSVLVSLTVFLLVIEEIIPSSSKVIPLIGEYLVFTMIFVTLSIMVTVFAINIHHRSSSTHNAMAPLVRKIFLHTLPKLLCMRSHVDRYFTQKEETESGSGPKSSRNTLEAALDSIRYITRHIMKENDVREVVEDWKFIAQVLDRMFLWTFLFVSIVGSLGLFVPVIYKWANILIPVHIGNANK
# Method: Mature (>9 cm) female Xenopus laevis African frogs (NASCO, Ft. Atkinson, Wis.) were used as a source of oocytes. Prior to surgery, frogs were anesthetized by placing the animal in a 1.5 g/l solution of MS222 (3-aminobenzoic acid ethyl ester) for 30 minutes. Oocytes were removed from an incision made in the abdomen.
# In order to remove the follicular cell layer, harvested oocytes were treated with 1.25 mg/ml collagenase from Worthington Biochemical Corporation (Freehold, N.J.) for 2 hours at room temperature in calcium-free Barth's solution (88 mM NaCl, 10 mM HEPES pH 7.6, 0.33 mM MgSO4, 0.1 mg/ml gentamicin sulfate). Subsequently, stage 5 oocytes were isolated and injected with 50 nl (5-20 ng) each of the appropriate subunit cRNAs. Recordings were made 2 to 15 days after injection.
# After linearization and purification of cloned cDNAs, RNA transcripts were prepared in vitro using the appropriate mMessage mMachine kit from Ambion Inc. (Austin, Tex.).
# Electrophysiology. The majority of experiments were conducted using OpusXpress 6000A (Axon Instruments, Union City Calif.). OpusXpress is an integrated system that provides automated impalement and voltage clamp of up to eight oocytes in parallel. Cells were automatically perfused with bath solution, and agonist solutions were delivered from a 96-well plate. Both the voltage and current electrodes were filled with 3 M KCl. The agonist solutions were applied via disposable tips, which eliminated any possibility of cross-contamination. Drug applications alternated between ACh controls and experimental applications. Flow rates were set at 2 ml/min for experiments with α7 receptors and 4 ml/min for other subtypes. Cells were voltage-clamped at a holding potential of −60 mV. Data were collected at 50 Hz and filtered at 20 Hz. Agonist applications were 12 seconds in duration followed by 181-second washout periods for α7 receptors and 8 seconds with 241-second wash periods for other subtypes. For some experiments, particularly under conditions where residual inhibition precluded making repeated measurements from single cells (see below), manual oocyte recordings were made as previously described (Papke and Papke Br J of Pharmacol, 2002, 137:49-61). […]
# Experimental protocols and data analysis. […] In other experiments (Papke et al. J. Neurochem., 2000, 75:204-216; Papke and Papke Br J of Pharmacol, 2002, 137:49-61) these concentrations were determined to be the EC74, EC15, EC22, EC17, EC40, EC70, EC55, EC70 and EC100, respectively. […]
# Responses to experimental drug applications were calculated relative to the preceding ACh control responses in order to normalize the data, compensating for the varying levels of channel expression among the oocytes. […]
# rats = assay: Nicotine drug discrimination in rats; assay type: in vivo
# Method: as §1, §2
smiles,measurement,setting,value
"CCCCCCC(=O)OC1CC(C)(C)NC(C)(C)C1 [TMPH, 2,2,6,6-tetramethylpiperidin-4-yl heptanoate]",effect on hypomotility induced by nicotine,mice; TMPH 20 mg/kg s.c. 15 minutes prior to nicotine (1.5 mg/kg),failed to significantly reduce
same,Locomotor Activity # Interrupts (Mean ± SEM),mice; TMPH (20 mg/kg)/Nicotine (1.5 mg/kg),397 ± 170 # Interrupts
same,Locomotor Activity # Interrupts (Mean ± SEM),mice; TMPH (20 mg/kg)/Saline,2031 ± 160 # Interrupts
same,blockade of nicotine-induced hypomotility,mice; TMPH @ 20 mg/kg,0% blockade @ 20
same,effect of TMPH by itself on locomotor activity,"mice; s.c. injection, at the indicated doses and times",did not have a significant effect
same,IC50,"Human α3β2α5; decrease in net charge, 1 μM ACh co-applied with TMPH, read-out: IC50 (area)",0.43 ± 0.18 µM
same,IC50,"Human α3β2α5; decrease in peak current amplitude, 1 μM ACh co-applied with TMPH, read-out: IC50 (peak)",1.1 µM
same,IC50,"Human α3β2α5; inhibition still present after 5-minute wash, read-out: IC50 (recovery)",0.75 ± 0.2 µM
same,IC50 recovery/IC50 net charge,Human α3β2α5; ratio,1.7
same,effect of TMPH-nicotine combination on response rates,"rats; compared to vehicle, any dose combination tested, p>0.05",did not alter response rates
same,nicotine-lever responding by TMPH alone,rats; doses at which antagonism was observed (data not shown),did not produce nicotine-lever responding
